# Measurements from PubChem BioAssay (NCI).
#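 Cultured in 96-well plates, cells were exposed to test compound for 48 hours across five concentrations. Here, GI50 denotes the concentration required for 50% inhibition of growth. TGI: concentration producing complete growth inhibition.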
# Key:
# Assay in all cases: growth of human tumour cells (NCI), 48 h
# [1] = system: CAKI-1 renal
# [2] = system: MDA-MB-435
# [3] = system: OVCAR-3 ovarian
# [4] = system: HCT-116 colon
# [5] = system: SF-295 CNS
# [6] = system: HCC-2998 colon
# [7] = system: SK-MEL-28 melanoma
# [8] = system: UACC-257 melanoma
# [9] = system: NCI-H460 lung
# [10] = system: SW-620 colon
# [11] = system: KM12 colon
# [12] = system: MDA-N
# [13] = system: K-562 leukemia
# [14] = system: RPMI-8226 leukemia
# [15] = system: 786-0 renal
# [16] = system: SK-MEL-2 melanoma
# [17] = system: MCF7 breast
# [18] = system: ACHN renal
# [19] = system: SNB-75 CNS
# [20] = system: UO-31 renal
# [21] = system: HOP-62 NSCLC
# [22] = system: COLO 205 colon
# [23] = system: U251 CNS
# [24] = system: SK-MEL-5 melanoma
# [25] = system: MOLT-4 leukemia
# [26] = system: PC-3 prostate
# [27] = system: MDA-MB-231 breast
# [28] = system: M14 melanoma
# [29] = system: A498 renal
# [30] = system: RXF 393 renal
# [31] = system: SK-OV-3 ovarian
# [32] = system: A549 NSCLC
# [33] = system: SNB-19 CNS
# [34] = system: HL-60(TB) leukemia
# [35] = system: T-47D breast
# [36] = system: NCI-H226 lung
# [37] = system: TK-10 renal
# [38] = system: UACC-62 melanoma
# [39] = system: OVCAR-4 ovarian
# [40] = system: DU-145 prostate
# [41] = system: SN12C renal
# [42] = system: LOX IMVI melanoma
# [43] = system: NCI/ADR-RES ovarian
# [44] = system: HOP-92 NSCLC
# [45] = system: SR leukemia
# [46] = system: EKVX NSCLC
# [47] = system: IGROV1 ovarian
# [48] = system: MALME-3M melanoma
# [49] = system: HT29 colon
# [50] = system: NCI-H522 lung
# [51] = system: SF-268 CNS
# [52] = system: SF-539 CNS
# [53] = system: OVCAR-8 ovarian
# [54] = system: HCT-15 colon
# [55] = system: NCI-H23 lung
# [56] = system: CCRF-CEM leukemia
# [57] = system: HS 578T breast
# [58] = system: BT-549 breast
# [59] = system: OVCAR-5 ovarian
smiles,measurement,setting,value
COC(=O)C1=C2SCc3ccc(cc3)CSC3=C(C(=O)OC)SC(=C(S2)S1)S3,TGI,[1],> 100 µM
same,TGI,[2],> 100 µM
same,TGI,[3],> 100 µM
same,TGI,[4],> 100 µM
same,TGI,[5],> 100 µM
same,TGI,[6],> 100 µM
same,TGI,[7],> 100 µM
same,TGI,[8],> 100 µM
same,TGI,[9],> 100 µM
same,TGI,[10],> 100 µM
same,TGI,[11],> 100 µM
same,TGI,[12],> 100 µM
same,TGI,[13],> 100 µM
same,TGI,[14],> 100 µM
same,TGI,[15],> 100 µM
same,TGI,[16],> 100 µM
same,TGI,[17],> 100 µM
same,TGI,[18],> 100 µM
same,TGI,[19],> 100 µM
same,TGI,[20],> 100 µM
same,TGI,[21],> 100 µM
same,TGI,[22],> 100 µM
same,TGI,[23],> 100 µM
same,TGI,[24],> 100 µM
same,TGI,[25],> 100 µM
same,TGI,[26],> 100 µM
same,TGI,[27],> 100 µM
same,TGI,[28],> 100 µM
same,TGI,[29],> 100 µM
same,TGI,[30],> 100 µM
same,TGI,[31],> 100 µM
same,TGI,[32],> 100 µM
same,TGI,[33],> 100 µM
same,TGI,[34],9.51 µM
same,TGI,[35],> 100 µM
same,TGI,[36],> 100 µM
same,TGI,[37],> 100 µM
same,TGI,[38],> 100 µM
same,TGI,[39],> 100 µM
same,TGI,[40],> 100 µM
same,TGI,[41],> 100 µM
Clc1ccc(/C=C2\CCCC3C2=Nc2ccccc2NC3c2ccc(Cl)cc2)cc1 (stereo not drawn),GI50,[1],3.95 µM
same,TGI,[1],69.9 µM
same,GI50,[2],2.87 µM
same,TGI,[2],> 27.6 µM
same,GI50,[3],3.13 µM
same,TGI,[3],9.12 µM
same,GI50,[4],1.59 µM
same,TGI,[4],3.02 µM
same,GI50,[42],1.74 µM
same,TGI,[42],3.18 µM
same,GI50,[5],2.71 µM
same,TGI,[5],8.46 µM
same,GI50,[6],1.92 µM
same,TGI,[6],3.55 µM
same,GI50,[7],7.15 µM
same,TGI,[7],28.4 µM
same,GI50,[8],2.14 µM
same,TGI,[8],5.88 µM
same,GI50,[9],4.47 µM
same,TGI,[9],16.4 µM
same,GI50,[10],2.96 µM
same,TGI,[10],10.6 µM
same,GI50,[11],2.02 µM
same,TGI,[11],3.99 µM
same,GI50,[13],3.91 µM
same,TGI,[13],27.8 µM
same,GI50,[14],1.85 µM
same,TGI,[14],5.13 µM
same,GI50,[43],4.66 µM
same,TGI,[43],52.3 µM
same,GI50,[15],3.48 µM
same,TGI,[15],16.2 µM
same,GI50,[16],31.3 µM
same,TGI,[16],> 64.8 µM
same,GI50,[17],2.92 µM
same,TGI,[17],> 34 µM
same,GI50,[18],4.42 µM
same,TGI,[18],> 25.4 µM
same,GI50,[19],12.3 µM
same,TGI,[19],57.5 µM
same,GI50,[20],3.15 µM
same,TGI,[20],12.5 µM
same,GI50,[44],7.99 µM
same,TGI,[44],37.9 µM
same,GI50,[45],2.6 µM
same,TGI,[45],6.64 µM
same,GI50,[21],3.86 µM
same,TGI,[21],22.1 µM
same,GI50,[22],3.11 µM
same,TGI,[22],8.2 µM
same,GI50,[23],2.05 µM
same,TGI,[23],4.71 µM
same,GI50,[24],2.91 µM
same,TGI,[24],7.19 µM
same,GI50,[46],4.07 µM
same,TGI,[46],52.5 µM
same,GI50,[25],4.52 µM
same,TGI,[25],30.4 µM
same,GI50,[47],3.3 µM
same,TGI,[47],10.2 µM
same,GI50,[48],16.8 µM
same,TGI,[48],49.2 µM
same,GI50,[49],2.79 µM
same,TGI,[49],7.95 µM
same,GI50,[26],4.45 µM
same,TGI,[26],> 41.5 µM
same,GI50,[50],11.6 µM
same,TGI,[50],28.5 µM
same,GI50,[27],6.99 µM
same,TGI,[27],41.7 µM
same,GI50,[51],4.05 µM
same,TGI,[51],> 77.7 µM
same,GI50,[28],2.07 µM
same,TGI,[28],5.19 µM
same,GI50,[29],2.15 µM
same,TGI,[29],5.79 µM
same,GI50,[52],4.75 µM
same,TGI,[52],47.4 µM
same,GI50,[53],2.75 µM
same,TGI,[53],8.31 µM
same,GI50,[30],1.81 µM
same,TGI,[30],3.47 µM
same,GI50,[54],2.59 µM
same,TGI,[54],7.47 µM
same,GI50,[31],7.49 µM
same,TGI,[31],> 100 µM
same,GI50,[55],3.43 µM
same,TGI,[55],15.7 µM
same,GI50,[56],3.18 µM
same,TGI,[56],> 35.9 µM
same,GI50,[32],2.88 µM
same,TGI,[32],9.11 µM
same,GI50,[33],7.01 µM
same,TGI,[33],> 100 µM
same,GI50,[34],4.85 µM
same,TGI,[34],33 µM
same,GI50,[57],4.04 µM
same,TGI,[57],> 27.7 µM
same,GI50,[35],6.27 µM
same,TGI,[35],> 87.9 µM
same,GI50,[36],1.91 µM
same,TGI,[36],4.19 µM
same,GI50,[37],11 µM
same,TGI,[37],> 58.5 µM
same,GI50,[38],6.7 µM
same,TGI,[38],25.4 µM
same,GI50,[39],3.77 µM
same,TGI,[39],> 52.7 µM
same,GI50,[40],4.39 µM
same,TGI,[40],23.9 µM
same,GI50,[58],2.24 µM
same,TGI,[58],6.81 µM
same,GI50,[41],6.81 µM
same,TGI,[41],34.2 µM
same,GI50,[59],8.63 µM
same,TGI,[59],22.3 µM
Clc1ccc(C2c3ccccc3-c3nccn32)c(Cl)c1 (stereo not drawn),GI50,[1],1.98 µM
same,TGI,[1],19 µM
same,GI50,[2],10.6 µM
same,TGI,[2],22.5 µM
same,GI50,[3],11 µM
same,TGI,[3],22.9 µM
same,GI50,[4],9.7 µM
same,TGI,[4],39.2 µM
same,GI50,[42],11.2 µM
same,TGI,[42],23.9 µM
same,GI50,[5],4.52 µM
same,TGI,[5],18.3 µM
same,GI50,[6],13.9 µM
same,TGI,[6],28.1 µM
same,GI50,[7],13.6 µM
same,TGI,[7],26.5 µM
same,GI50,[8],12.5 µM
same,TGI,[8],28.9 µM
same,GI50,[9],12.2 µM
same,TGI,[9],24.6 µM
same,GI50,[10],13.6 µM
same,TGI,[10],26.5 µM
same,GI50,[11],13.2 µM
same,TGI,[11],26.6 µM
same,GI50,[13],1.37 µM
same,TGI,[13],> 40.5 µM
same,GI50,[14],0.941 µM
same,TGI,[14],8.48 µM
same,GI50,[43],6.57 µM
same,TGI,[43],24 µM
same,GI50,[15],19.5 µM
same,TGI,[15],> 55.2 µM
same,GI50,[16],11.3 µM
same,TGI,[16],26 µM
same,GI50,[17],12.5 µM
same,TGI,[17],25.7 µM
same,GI50,[18],12.3 µM
same,TGI,[18],26.9 µM
same,GI50,[19],11.2 µM
same,TGI,[19],23.7 µM
same,GI50,[20],7.37 µM
same,TGI,[20],23.3 µM
same,GI50,[44],9.94 µM
same,TGI,[44],25.7 µM
same,GI50,[45],2.34 µM
same,TGI,[45],30 µM
same,GI50,[21],16.9 µM
same,TGI,[21],44.2 µM
same,GI50,[22],13.5 µM
same,TGI,[22],28 µM
same,GI50,[23],13.4 µM
same,TGI,[23],26.2 µM
same,GI50,[24],6.3 µM
same,TGI,[24],18.8 µM
same,GI50,[46],5.28 µM
same,TGI,[46],19.3 µM
same,GI50,[25],2.8 µM
same,TGI,[25],20.5 µM
same,GI50,[47],11.7 µM
same,TGI,[47],> 47.9 µM
same,GI50,[48],10.6 µM
same,TGI,[48],23.1 µM
same,GI50,[49],9.87 µM
same,TGI,[49],24.6 µM
same,GI50,[26],11.6 µM
same,TGI,[26],31.3 µM
same,GI50,[50],11.4 µM
same,TGI,[50],31.7 µM
same,GI50,[27],11.5 µM
same,TGI,[27],26 µM
same,GI50,[51],14 µM
same,TGI,[51],27.4 µM
same,GI50,[28],21.2 µM
same,TGI,[28],62.4 µM
same,GI50,[29],12.2 µM
same,TGI,[29],24.6 µM
same,GI50,[52],15 µM
same,TGI,[52],28.5 µM
same,GI50,[53],12.6 µM
same,TGI,[53],32.5 µM
same,GI50,[30],14.6 µM
same,TGI,[30],30.6 µM
same,GI50,[54],11.5 µM
same,TGI,[54],24.4 µM
same,GI50,[31],14.7 µM
same,TGI,[31],33.2 µM
same,GI50,[55],6.56 µM
same,TGI,[55],35.5 µM
same,GI50,[56],2.77 µM
same,TGI,[56],> 44.1 µM
same,GI50,[32],13.4 µM
same,TGI,[32],36.7 µM
same,GI50,[33],13.2 µM
same,TGI,[33],27.4 µM
same,GI50,[34],2.25 µM
same,TGI,[34],18.4 µM
same,GI50,[57],13.6 µM
same,TGI,[57],35.5 µM
same,GI50,[35],5.13 µM
same,TGI,[35],32.8 µM
same,GI50,[36],6.92 µM
same,TGI,[36],26 µM
same,GI50,[37],13.7 µM
same,TGI,[37],28.6 µM
same,GI50,[38],9.66 µM
same,TGI,[38],23 µM
same,GI50,[39],3.6 µM
same,TGI,[39],17.4 µM
same,GI50,[40],13.6 µM
same,TGI,[40],26.4 µM
same,GI50,[58],9.01 µM
same,TGI,[58],21.7 µM
same,GI50,[41],13.8 µM
same,TGI,[41],30.6 µM
same,GI50,[59],14.8 µM
same,TGI,[59],30.1 µM
